pIC50: −log10 of the molar value.
Tests used:
Type in all cases: biochemical
[1] = molecular target: Pim-3 (Homo sapiens (Human), UniProt Q86V86); assay: Pim-3 kinase assay; conditions: 1 mM ATP, biotin-labeled BAD peptide substrate; read-out: Pim3 IC50
Method: (§1) Pim-1 and Pim-3 kinase assays-20 μL reactions were run in white 384 well polystyrene plates dotted with 0.8 μL compound/DMSO in the assay buffer (50 mM Tris, pH 7.5, 0.01% Tween-20, 5 mM MgCl2, 0.01% BSA, 5 mM DTT), containing […] Biotin-labeled BAD peptide substrate (AnaSpec 62269), 1 mM ATP, and 2.5 pM (Pim-1, Invitrogen PV3503) or 1.25 pM (Pim-3, Millipore 14-738) enzyme for 1 h at 25° C. Reactions were stopped by addition of 10 μL STOP Buffer (150 mM Tris, pH=7.5, 150 mM NaCl, 75 mM EDTA, 0.01% Tween-20, 0.3% BSA) supplemented with Phospho-Bad (Ser112) Antibody (Cell Signaling 9291) diluted 666-fold, and Streptavidin donor beads (PerkinElmer 6760002) along with Protein-A acceptor beads (PerkinElmer 6760137) at 15 μg/mL each. Supplementation of the STOP buffer with beads and stopping the reactions were done under reduced light. Prior to the stopping reactions STOP buffer with beads was pre-incubated for 1 h in the dark at room temperature. After stopping the reactions, plates were incubated for 1 h in the dark at room temperature before reading on a PHERAstar FS plate reader (BMG Labtech) under reduced light.

[2] = molecular target: Pim-1 (Homo sapiens (Human), UniProt P11309); assay: Pim-1 kinase assay; conditions: 1 mM ATP, biotin-labeled BAD peptide substrate; read-out: Pim1 IC50
Method: as §1

[3] = molecular target: Pim-2 (Homo sapiens (Human), UniProt Q9P1W9); assay: Pim-2 kinase assay; conditions: 1 mM ATP, fluorescein-labeled CREBtide peptide substrate; read-out: Pim2 IC50
Method: Pim-2 kinase assay-20 μL reactions were run in white 384 well polystyrene plates dotted with 0.8 μL compound/DMSO in the assay buffer (50 mM Tris, pH 7.5, 0.01% Tween-20, 5 mM MgCl2, 0.01% BSA, 5 mM DTT), containing 0.05 μm Fluorescein-labeled CREBtide peptide substrate (Invitrogen PV3508), 1 mM ATP, and 1 nM enzyme (Invitrogen PV3649) for 2 h at 25° C. Reactions were stopped by addition of 10 μL TR-FRET Dilution Buffer (Invitrogen PV3574) with 30 mM EDTA and 1.5 nM LanthaScreen Tb-CREB pSer133 antibody (Invitrogen PV3566). After 30 min. incubation at room temperature, plates were read on a PHERAstar FS plate reader (BMG Labtech).

Sequence of Pim-2 (Q9P1W9 whole entry): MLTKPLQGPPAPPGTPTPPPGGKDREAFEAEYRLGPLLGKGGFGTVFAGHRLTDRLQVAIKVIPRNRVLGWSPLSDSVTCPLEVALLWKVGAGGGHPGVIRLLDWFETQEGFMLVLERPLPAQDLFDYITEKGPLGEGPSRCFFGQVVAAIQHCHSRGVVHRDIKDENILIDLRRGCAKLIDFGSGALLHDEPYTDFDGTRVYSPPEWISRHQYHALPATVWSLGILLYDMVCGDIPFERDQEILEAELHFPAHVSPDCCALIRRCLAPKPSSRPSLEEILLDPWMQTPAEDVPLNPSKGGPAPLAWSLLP
Sequence of Pim-1 (P11309 whole entry): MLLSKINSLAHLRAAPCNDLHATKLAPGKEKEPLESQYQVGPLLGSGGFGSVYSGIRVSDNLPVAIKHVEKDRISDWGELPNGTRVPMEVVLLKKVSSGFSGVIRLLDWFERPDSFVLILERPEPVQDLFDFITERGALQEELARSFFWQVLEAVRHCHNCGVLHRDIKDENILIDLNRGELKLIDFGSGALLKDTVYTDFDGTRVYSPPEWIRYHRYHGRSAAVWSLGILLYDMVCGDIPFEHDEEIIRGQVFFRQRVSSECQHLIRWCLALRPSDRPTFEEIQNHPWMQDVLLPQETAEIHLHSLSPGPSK

Compound | pIC50 [1] | pIC50 [2] | pIC50 [3]
Nc1oc2cccnc2c1C(=O)Nc1cnccc1N1C[C@@H](N)[C@H](O)[C@@H](C(F)(F)F)C1 (single isomer, unassigned) [Example 87 (Diastereoisomer 2)] | ≥ 8.00 | ≥ 8.00 | 7.00 to 8.00
Nc1sc2ccc(Cl)nc2c1C(=O)Nc1cnccc1N1CCC[C@H](N)C1 (stereo in doubt) [Example 40, 2-Amino-N-[4-(3-aminopiperidin-1-yl)pyridin-3-yl]-5-chlorothieno[3,2-b]pyridine-3-carboxamide] | 7.00 to 8.00 | ≥ 8.00 | < 5.70
Cc1ccc2sc(N)c(C(=O)Nc3cnccc3N3CCC[C@H](N)C3)c2n1 (stereo in doubt) [Example 42, 2-Amino-N-[4-(3-aminopiperidin-1-yl)pyridin-3-yl]-5-methylthieno[3,2-b]pyridine-3-carboxamide] | < 7.40 | < 7.40 | < 5.70
Cn1ncc(NC(=O)c2c(N)sc3cccnc23)c1N1CCCC(N)CC1 (stereo not drawn) [Example 1, 2-Amino-N-[5-(4-aminoazepan-1-yl)-1-methyl-1H-pyrazol-4-yl]thieno[3,2-b]pyridine-3-carboxamide] | ≥ 8.00 | ≥ 8.00 | 6.00 to 7.00
Cn1ncc(NC(=O)c2c(N)sc3cccnc23)c1N1CCC[C@H](N)C1 [Example 2, 2-Amino-N-{5-[(3S)-3-aminopiperidin-1-yl]-1-methyl-1H-pyrazol-4-yl}thieno[3,2-b]pyridine-3-carboxamide] | ≥ 8.00 | ≥ 8.00 | 6.00 to 7.00
Cn1ncc(NC(=O)c2c(N)sc3cccnc23)c1N1CCC[C@@H](N)C1 [Example 3, 2-Amino-N-{5-[(3R)-3-aminopiperidin-1-yl]-1-methyl-1H-pyrazol-4-yl}thieno[3,2-b]pyridine-3-carboxamide] | ≥ 8.00 | ≥ 8.00 | < 5.70
Cn1ncc(NC(=O)c2c(N)sc3cccnc23)c1N1CCCNCC1 [Example 4, 2-Amino-N-[5-(1,4-diazepan-1-yl)-1-methyl-1H-pyrazol-4-yl]thieno[3,2-b]pyridine-3-carboxamide] | ≥ 8.00 | ≥ 8.00 | < 6.00
Cn1ncc(NC(=O)c2c(N)sc3cccnc23)c1-c1ccc2c(c1)C(N)CC2 (stereo not drawn) [Example 5, 2-Amino-N-[5-(3-amino-2,3-dihydro-1H-inden-5-yl)-1-methyl-1H-pyrazol-4-yl]thieno[3,2-b]pyridine-3-carboxamide] | ≥ 8.00 | ≥ 8.00 | 6.00 to 7.00
Nc1sc2cccnc2c1C(=O)Nc1cnccc1N1CCC[C@H](N)C1 [Example 6, 2-Amino-N-{4-[(3S)-3-aminopiperidin-1-yl]pyridin-3-yl}thieno[3,2-b]pyridine-3-carboxamide] | ≥ 8.00 | ≥ 8.00 | 6.00 to 7.00
Nc1sc2cccnc2c1C(=O)Nc1cnccc1N1CCC[C@@H](N)C1 [Example 7, 2-Amino-N-{4-[(3R)-3-aminopiperidin-1-yl]pyridin-3-yl}thieno[3,2-b]pyridine-3-carboxamide] | < 7.40 | ≥ 8.00 | < 5.70
Nc1sc2cccnc2c1C(=O)Nc1cnccc1N1CCCNCC1 [Example 8, 2-Amino-N-[4-(1,4-diazepan-1-yl)pyridin-3-yl]thieno[3,2-b]pyridine-3-carboxamide] | < 7.40 | ≥ 8.00 | < 5.70
Nc1sc2cccnc2c1C(=O)Nc1cnccc1N1CCCC(N)CC1 (stereo not drawn) [Example 9, 2-Amino-N-[4-(4-aminoazepan-1-yl)pyridin-3-yl]thieno[3,2-b]pyridine-3-carboxamide] | < 7.40 | 7.00 to 8.00 | < 5.70
COc1cnc2c(C(=O)Nc3cnccc3N3CCC[C@H](N)C3)c(N)sc2c1 [Example 12, 2-Amino-N-{4-[(3S)-3-aminopiperidin-1-yl]pyridin-3-yl}-6-methoxythieno[3,2-b]pyridine-3-carboxamide] | ≥ 8.00 | ≥ 8.00 | 6.00 to 7.00
COc1cnc2c(C(=O)Nc3cnn(C)c3N3CCCC(N)CC3)c(N)sc2c1 (stereo not drawn) [Example 13, 2-Amino-N-[5-(4-aminoazepan-1-yl)-1-methyl-1H-pyrazol-4-yl]-6-methoxythieno[3,2-b]pyridine-3-carboxamide] | ≥ 8.00 | ≥ 8.00 | 7.00 to 8.00
Nc1sc2cc(OC3CC3)cnc2c1C(=O)Nc1cnccc1N1CCC[C@H](N)C1 [Example 14, 2-Amino-N-{4-[(3S)-3-aminopiperidin-1-yl]pyridin-3-yl}-6-cyclopropoxythieno[3,2-b]pyridine-3-carboxamide] | ≥ 8.00 | ≥ 8.00 | < 5.70
C[C@@H]1C[C@H](N)CN(c2ccncc2NC(=O)c2c(N)sc3cccnc23)C1 [Example 15, 2-Amino-N-{4-[(3S,5R)-3-amino-5-methyl-piperidin-1-yl]pyridin-3-yl}-thieno[3,2-b]pyridine-3-carboxamide] | ≥ 8.00 | ≥ 8.00 | 6.00 to 7.00
COc1ccnc2c(C(=O)Nc3cnccc3N3CCC[C@H](N)C3)c(N)sc12 [Example 16, 2-Amino-N-{4-[(3S)-3-aminopiperidin-1-yl]pyridin-3-yl}-7-methoxythieno[3,2-b]pyridine-3-carboxamide] | ≥ 8.00 | ≥ 8.00 | 6.00 to 7.00
COc1ccnc2c(C(=O)Nc3cnn(C)c3N3CCCC(N)CC3)c(N)sc12 (stereo not drawn) [Example 17, 2-Amino-N-[5-(4-aminoazepan-1-yl)-1-methyl-1H-pyrazol-4-yl]-7-methoxythieno[3,2-b]pyridine-3-carboxamide] | ≥ 8.00 | ≥ 8.00 | ≥ 8.00
CC(C)Oc1ccnc2c(C(=O)Nc3cnccc3N3CCC[C@H](N)C3)c(N)sc12 [Example 18, 2-Amino-N-{4-[(3S)-3-aminopiperidin-1-yl]pyridin-3-yl}-7-isopropoxythieno[3,2-b]pyridine-3-carboxamide] | ≥ 8.00 | < 7.40 | < 6.00
CC(C)Oc1ccnc2c(C(=O)Nc3cnn(C)c3N3CCCC(N)CC3)c(N)sc12 (stereo not drawn) [Example 19, 2-Amino-N-[5-(4-aminoazepan-1-yl)-1-methyl-1H-pyrazol-4-yl]-7-isopropoxythieno[3,2-b]pyridine-3-carboxamide] | ≥ 8.00 | ≥ 8.00 | 7.00 to 8.00
CCOc1ccnc2c(C(=O)Nc3cnccc3N3CCC[C@H](N)C3)c(N)sc12 [Example 20, 2-Amino-N-{4-[(3S)-3-aminopiperidin-1-yl]pyridin-3-yl}-7-ethoxythieno[3,2-b]pyridine-3-carboxamide] | ≥ 8.00 | ≥ 8.00 | 6.00 to 7.00
CCc1cnc2c(C(=O)Nc3cnccc3N3CCC[C@H](N)C3)c(N)sc2c1 [Example 22, 2-Amino-N-{4-[(3S)-3-aminopiperidin-1-yl]pyridin-3-yl}-6-ethylthieno[3,2-b]pyridine-3-carboxamide] | ≥ 8.00 | ≥ 8.00 | 7.00 to 8.00
CCc1cnc2c(C(=O)Nc3cnn(C)c3N3CCCC(N)CC3)c(N)sc2c1 (stereo not drawn) [Example 23, 2-Amino-N-[5-(4-aminoazepan-1-yl)-1-methyl-1H-pyrazol-4-yl]-6-ethylthieno[3,2-b]pyridine-3-carboxamide] | ≥ 8.00 | ≥ 8.00 | 7.00 to 8.00
Nc1sc2cc(-c3ccccc3)cnc2c1C(=O)Nc1cnccc1N1CCC[C@H](N)C1 [Example 24, 2-Amino-N-{4-[(3S)-3-aminopiperidin-1-yl]pyridin-3-yl}-6-phenylthieno[3,2-b]pyridine-3-carboxamide] | ≥ 8.00 | ≥ 8.00 | < 6.00
Cn1ncc(NC(=O)c2c(N)sc3cc(-c4ccccc4)cnc23)c1N1CCCC(N)CC1 (stereo not drawn) [Example 25, 2-Amino-N-[5-(4-aminoazepan-1-yl)-1-methyl-1H-pyrazol-4-yl]-6-phenylthieno[3,2-b]pyridine-3-carboxamide] | ≥ 8.00 | ≥ 8.00 | 7.00 to 8.00
Nc1sc2cc(-c3c(F)cccc3F)cnc2c1C(=O)Nc1cnccc1N1CCC[C@H](N)C1 [Example 26, 2-Amino-N-{4-[(3S)-3-aminopiperidin-1-yl]pyridin-3-yl}-6-(2,6-difluorophenyl)-thieno[3,2-b]pyridine-3-carboxamide] | ≥ 8.00 | ≥ 8.00 | 7.00 to 8.00

Reference: patent US10000507B2, “Furo- and thieno-pyridine carboxamide compounds useful as pim kinase inhibitors” (Incyte Corporation, priority 2013, dated 2018)
